biological target: T1, human RXFP1 (Homo sapiens, UniProt Q9HBX9); experiment: hRXFP1 HEK293 cAMP assay (HTRF); type: cell-based; conditions: HEK293 cells stably expressing human RXFP1; 30 min at rt; intracellular cAMP by HTRF
T1 construct: expressed in transfected cells
T1 sequence (Q9HBX9 1-757): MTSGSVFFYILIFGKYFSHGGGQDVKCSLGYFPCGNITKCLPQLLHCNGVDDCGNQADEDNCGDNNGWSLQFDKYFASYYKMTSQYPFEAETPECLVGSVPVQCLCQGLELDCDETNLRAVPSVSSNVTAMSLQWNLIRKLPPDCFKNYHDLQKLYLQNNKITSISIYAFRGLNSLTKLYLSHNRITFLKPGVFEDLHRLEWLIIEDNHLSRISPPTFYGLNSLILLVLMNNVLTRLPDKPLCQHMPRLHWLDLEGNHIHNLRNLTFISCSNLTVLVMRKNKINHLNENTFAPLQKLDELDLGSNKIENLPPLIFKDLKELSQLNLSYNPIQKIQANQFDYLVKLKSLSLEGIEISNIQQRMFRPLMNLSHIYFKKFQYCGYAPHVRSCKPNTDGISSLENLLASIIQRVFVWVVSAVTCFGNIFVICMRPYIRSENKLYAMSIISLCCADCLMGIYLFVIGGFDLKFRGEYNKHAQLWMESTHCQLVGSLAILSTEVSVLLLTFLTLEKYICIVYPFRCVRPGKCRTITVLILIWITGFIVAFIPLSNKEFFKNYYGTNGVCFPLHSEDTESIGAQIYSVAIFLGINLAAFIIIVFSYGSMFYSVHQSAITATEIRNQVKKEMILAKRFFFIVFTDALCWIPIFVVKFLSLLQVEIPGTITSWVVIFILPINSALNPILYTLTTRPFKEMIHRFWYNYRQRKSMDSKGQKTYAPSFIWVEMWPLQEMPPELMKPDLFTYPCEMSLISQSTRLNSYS
Procedure, shortened: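 Agonism is measured as cAMP by HTRF, quantified from a standard curve via the 665/590 nm ratio and fitted with a four-parameter logistic equation. Compounds (0.010 nM to 50 μM final, 2% DMSO) were applied for 30 min at rt to human RXFP1-expressing HEK293 cells in assay buffer containing 0.5 mM IBMX.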

| EC50 [nM] | Compound |
| --- | --- |
| 236 | COc1ccc(-c2cccc(NS(C)(=O)=O)c2)cc1C(=O)Nc1c(C(=O)Nc2ccc(F)c(C(F)(F)F)c2)sc2cc(C(F)(F)F)ccc12 [Example 123, N-(4-fluoro-3-(trifluoromethyl)phenyl)-3-(4-methoxy-3′-(methylsulfon-amido)-[1,1′-biphenyl]-3-carboxamido)-6-(trifluoromethyl) benzo[b] thiophene-2-carboxamide] |
| 560 | COc1ccc(C#CC(C)(C)O)cc1C(=O)Nc1c(C(=O)Nc2ccc(F)c(C(F)(F)F)c2)sc2cc(C(F)(F)F)ccc12 [Example 124, N-(4-fluoro-3-(trifluoromethyl)phenyl)-3-(5-(3-hydroxy-3-methylbut-1-yn-1-yl)-2-methoxybenz-amido)-6-(trifluoromethyl) benzo[b] thiophene-2-carboxamide] |
| 254 | COc1ccc(-c2ccc(N3CCOCC3)nc2)cc1C(=O)Nc1c(C(=O)Nc2ccc(F)c(C(F)(F)F)c2)sc2cc(C(F)(F)F)ccc12 [Example 127, N-(4-fluoro-3-(trifluoromethyl)phenyl)-3-(2-methoxy-5-(6-morpholino-pyridin-3-yl)benzamido)-6-(trifluoromethyl) benzo[b] thiophene-2-carboxamide] |
| 237 | COc1ccc(-c2cc(C(=O)O)ccc2F)cc1C(=O)Nc1c(C(=O)Nc2ccc(F)c(C(F)(F)F)c2)sc2cc(C(F)(F)F)ccc12 [Example 128, 6-fluoro-3′-((2-((4-fluoro-3-(trifluoromethyl)phenyl)carbamoyl)-6-(trifluoromethyl)benzo[b]thiophen-3-yl)carbamoyl)-4′-methoxy-[1,1′-biphenyl]-3-carboxylic acid] |
| 444 | COc1ccc(C(=O)N2CCO[C@@H](CO)C2)cc1C(=O)Nc1c(C(=O)Nc2ccc(F)c(C(F)(F)F)c2)sc2cc(C(F)(F)F)ccc12 [Example 129, (R)-N-(4-fluoro-3-(trifluoromethyl)phenyl)-3-(5-(2-(hydroxymethyl)morpholine-4-carbonyl)-2-methoxy-benzamido)-6-(trifluoromethyl) benzo[b] thiophene-2-carboxamide] |
| 279 | COc1ccc(C(=O)N2CC3(C2)CS(=O)(=O)C3)cc1C(=O)Nc1c(C(=O)Nc2ccc(F)c(C(F)(F)F)c2)sc2cc(C(F)(F)F)ccc12 [Example 130, 3-(5-(2,2-dioxido-2-thia-6-azaspiro[3.3]heptane-6-carbonyl)-2-methoxy-benzamido)-N-(4-fluoro-3-(trifluoromethyl)phenyl)-6-(trifluoromethyl) benzo[b] thiophene-2-carboxamide] |
| 51.2 | COc1ccc(C(=O)NCC2(S(C)(=O)=O)CC2)cc1C(=O)Nc1c(C(=O)Nc2ccc(F)c(C(F)(F)F)c2)sc2cc(C(F)(F)F)ccc12 [Example 131, N3-(2-((4-fluoro-3-(trifluoromethyl)phenyl)carbamoyl)-6-(trifluoromethyl)benzo[b]thiophen-3-yl)-4-methoxy-N1-((1-(methylsulfonyl)cyclopropyl)methyl) isophthalamide] |
| 135 | COc1ccc(C(=O)N2CCC(O)CC2)cc1C(=O)Nc1c(C(=O)Nc2ccc(F)c(C(F)(F)F)c2)sc2cc(C(F)(F)F)ccc12 [Example 132, N-(4-fluoro-3-(trifluoromethyl)phenyl)-3-(5-(4-hydroxy-piperidine-1-carbonyl)-2-methoxy-benzamido)-6-(trifluoromethyl) benzo[b] thiophene-2-carboxamide] |
| 634 | COc1ccc(C2CCN(C(=O)C3CC3(F)F)C2)cc1C(=O)Nc1c(C(=O)Nc2ccc(F)c(C(F)(F)F)c2)sc2cc(C(F)(F)F)ccc12 (centres unmarked) [Example 134, 3-(5-(1-(2,2-difluorocyclo-propane-1-carbonyl)pyrrolidin-3-yl)-2-methoxy-benzamido)-N-(4-fluoro-3-(trifluoromethyl)phenyl)-6-(trifluoromethyl) benzo[b] thiophene-2-carboxamide] |
| 488 | COc1ccc(C2CCN(C(=O)C3(C)COC3)C2)cc1C(=O)Nc1c(C(=O)Nc2ccc(F)c(C(F)(F)F)c2)sc2cc(C(F)(F)F)ccc12 (centres unmarked) [Example 135, N-(4-fluoro-3-(trifluoromethyl)phenyl)-3-(2-methoxy-5-(1-(3-methyloxetane-3-carbonyl)pyrrolidin-3-yl)benzamido)-6-(trifluoromethyl) benzo[b] thiophene-2-carboxamide] |
| 514 | COc1ccc(C2CCN(C(=O)CC(C)(C)O)C2)cc1C(=O)Nc1c(C(=O)Nc2ccc(F)c(C(F)(F)F)c2)sc2cc(C(F)(F)F)ccc12 (centres unmarked) [Example 136, N-(4-fluoro-3-(trifluoromethyl)phenyl)-3-(5-(1-(3-hydroxy-3-methylbutanoyl)pyrrolidin-3-yl)-2-methoxy-benzamido)-6-(trifluoromethyl) benzo[b] thiophene-2-carboxamide] |
| 591 | COc1ccc(C2CCN(C(=O)CCO)C2)cc1C(=O)Nc1c(C(=O)Nc2ccc(F)c(C(F)(F)F)c2)sc2cc(C(F)(F)F)ccc12 (centres unmarked) [Example 137, N-(4-fluoro-3-(trifluoromethyl)phenyl)-3-(5-(1-(3-hydroxypropanoyl)pyrrolidin-3-yl)-2-methoxy-benzamido)-6-(trifluoromethyl) benzo[b] thiophene-2-carboxamide] |
| 213 | COc1ccc(C2CCN(C(=O)C3(O)CC3)C2)cc1C(=O)Nc1c(C(=O)Nc2ccc(F)c(C(F)(F)F)c2)sc2cc(C(F)(F)F)ccc12 (centres unmarked) [Example 138, N-(4-fluoro-3-(trifluoromethyl)phenyl)-3-(5-(1-(1-hydroxycyclo-propane-1-carbonyl)pyrrolidin-3-yl)-2-methoxy-benzamido)-6-(trifluoromethyl) benzo[b] thiophene-2-carboxamide] |
| 97.9 | COc1ccc(C2CCN(C(=O)C(C)(C)O)C2)cc1C(=O)Nc1c(C(=O)Nc2ccc(F)c(C(F)(F)F)c2)sc2cc(C(F)(F)F)ccc12 (centres unmarked) [Example 140, N-(4-fluoro-3-(trifluoromethyl)phenyl)-3-(5-(1-(2-hydroxy-2-methylpropanoyl)pyrrolidin-3-yl)-2-methoxy-benzamido)-6-(trifluoromethyl) benzo[b] thiophene-2-carboxamide] |
| 400 | COc1ccc(C2CCN(C(=O)CO)C2)cc1C(=O)Nc1c(C(=O)Nc2ccc(F)c(C(F)(F)F)c2)sc2cc(C(F)(F)F)ccc12 (centres unmarked) [Example 141, N-(4-fluoro-3-(trifluoromethyl)phenyl)-3-(5-(1-(2-hydroxyacetyl)pyrrolidin-3-yl)-2-methoxy-benzamido)-6-(trifluoromethyl) benzo[b] thiophene-2-carboxamide] |
| 619 | COc1ccc(C2CCN(C3COC3)C2)cc1C(=O)Nc1c(C(=O)Nc2ccc(F)c(C(F)(F)F)c2)sc2cc(C(F)(F)F)ccc12 (centres unmarked) [Example 142, N-(4-fluoro-3-(trifluoromethyl)phenyl)-3-(2-methoxy-5-(1-(oxetan-3-yl)pyrrolidin-3-yl)benzamido)-6-(trifluoromethyl) benzo[b] thiophene-2-carboxamide] |
| 1540 | COCCC(=O)N1CCC(c2ccc(OC)c(C(=O)Nc3c(C(=O)Nc4ccc(F)c(C(F)(F)F)c4)sc4cc(C(F)(F)F)ccc34)c2)C1 (centres unmarked) [Example 143, N-(4-fluoro-3-(trifluoromethyl)phenyl)-3-(2-methoxy-5-(1-(3-methoxypropanoyl)pyrrolidin-3-yl)benzamido)-6-(trifluoromethyl) benzo[b] thiophene-2-carboxamide] |
| 1430 | COCC(=O)N1CCC(c2ccc(OC)c(C(=O)Nc3c(C(=O)Nc4ccc(F)c(C(F)(F)F)c4)sc4cc(C(F)(F)F)ccc34)c2)C1 (centres unmarked) [Example 144, N-(4-fluoro-3-(trifluoromethyl)phenyl)-3-(2-methoxy-5-(1-(2-methoxyacetyl)pyrrolidin-3-yl)benzamido)-6-(trifluoromethyl) benzo[b] thiophene-2-carboxamide] |
| 1650 | COc1ccc(C2CCN(C(=O)C(F)F)C2)cc1C(=O)Nc1c(C(=O)Nc2ccc(F)c(C(F)(F)F)c2)sc2cc(C(F)(F)F)ccc12 (centres unmarked) [Example 145, 3-(5-(1-(2,2-difluoroacetyl)pyrrolidin-3-yl)-2-methoxy-benzamido)-N-(4-fluoro-3-(trifluoromethyl)phenyl)-6-(trifluoromethyl) benzo[b] thiophene-2-carboxamide] |
| 1100 | COc1ccc(C2CCN(C(=O)CC#N)C2)cc1C(=O)Nc1c(C(=O)Nc2ccc(F)c(C(F)(F)F)c2)sc2cc(C(F)(F)F)ccc12 (centres unmarked) [Example 146, 3-(5-(1-(2-cyanoacetyl)pyrrolidin-3-yl)-2-methoxy-benzamido)-N-(4-fluoro-3-(trifluoromethyl)phenyl)-6-(trifluoromethyl) benzo[b] thiophene-2-carboxamide] |

— US20260265233A1, “BENZOTHIOPHENE DERIVATIVES AS RXFP1 AGONISTS” (BRISTOL-MYERS SQUIBB COMPANY, priority 2021, published 2026)
